Experimental data from patent publication US20150105252A1, “SUBSTITUTED PYRAZOLES AS HERBICIDES” (E I DU PONT DE NEMOURS AND COMPANY, priority 2013, published 2015).

Tests used:
barnyardgrass [1] = assay: Test A preemergence; format: in vivo, Echinochloa crus-galli; conditions: 0 to 100 scale
Method in brief: (§1)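 Seeds were sown in a loam soil–sand blend and given a directed soil spray preemergence; postemergence plants at 2–10 cm, one- to two-leaf stage, were sprayed with compound in non-phytotoxic solvent with surfactant. After about 10 days in a greenhouse, injury was visually rated against untreated controls (0 = no effect, 100 = complete control).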

crabgrass, large [2] = assay: Test A preemergence; format: in vivo, Digitaria sanguinalis; conditions: 0 to 100 scale
Method in brief: as §1

foxtail, giant [3] = assay: Test A preemergence; format: in vivo, Setaria faberii; conditions: 0 to 100 scale
Method in brief: as §1

morningglory [4] = assay: Test A preemergence; format: in vivo, Ipomoea spp.; conditions: 0 to 100 scale
Method in brief: as §1

pigweed [5] = assay: Test A preemergence; format: in vivo, Amaranthus retroflexus; conditions: 0 to 100 scale
Method in brief: as §1

velvetleaf [6] = assay: Test A preemergence; format: in vivo, Abutilon theophrasti; conditions: 0 to 100 scale
Method in brief: as §1

wheat [7] = assay: Test A preemergence; format: in vivo, Triticum aestivum; conditions: 0 to 100 scale
Method in brief: as §1

corn [8] = assay: Test A preemergence; format: in vivo, Zea mays; conditions: 0 to 100 scale
Method in brief: as §1

barnyardgrass [9] = assay: Test A postemergence; format: in vivo, Echinochloa crus-galli; conditions: Postemergence
Method in brief: as §1

crabgrass, large [10] = assay: Test A postemergence; format: in vivo, Digitaria sanguinalis
Method in brief: as §1

foxtail, giant [11] = assay: Test A postemergence; format: in vivo, Setaria faberii
Method in brief: as §1

morningglory [12] = assay: Test A postemergence; format: in vivo, Ipomoea spp.
Method in brief: as §1

pigweed [13] = assay: Test A postemergence; format: in vivo, Amaranthus retroflexus
Method in brief: as §1

velvetleaf [14] = assay: Test A postemergence; format: in vivo, Abutilon theophrasti
Method in brief: as §1

wheat [15] = assay: Test A postemergence; format: in vivo, Triticum aestivum
Method in brief: as §1

corn [16] = assay: Test A postemergence; format: in vivo, Zea mays
Method in brief: as §1

rice = assay: Test C flooded paddy test; format: in vivo, Oryza sativa; conditions: Flood
Text: (§2) At time of treatment, test pots were flooded to 3 cm above the soil surface, treated by application of test compounds directly to the paddy water, and then maintained at that water depth for the duration of the test. Treated plants and controls were maintained in a greenhouse for 13 to 15 days, after which time all species were compared to controls and visually evaluated. […] A dash (-) response means no test result.

sedge, umbrella = assay: Test C flooded paddy test; format: in vivo, Cyperus difformis; conditions: Flood
Text: as §2

ducksalad = assay: Test C flooded paddy test; format: in vivo, Heteranthera limosa; conditions: Flood
Text: as §2

barnyardgrass [17] = assay: Test C flooded paddy test; format: in vivo, Echinochloa crus-galli; conditions: Flood
Text: as §2

[18] = Preemergence, 500 g ai/ha, 0 no effect, 100 complete control
[19] = preemergence, 125 g ai/ha, visual injury, approx. 10 days
[20] = Postemergence, 500 g ai/ha, visual rating after approx. 10 days, 0 to 100 scale (0 no effect, 100 complete control)
[21] = postemergence, 125 g ai/ha, about 10 days, visual rating on 0 to 100 scale (0 no effect, 100 complete control)
[22] = 62 g ai/ha, scale 0 to 100 (0 no effect, 100 complete control)
[23] = Preemergence, 1000 g ai/ha, 0 no effect, 100 complete control
[24] = Postemergence, 1000 g ai/ha, visual rating after approx. 10 days, 0 to 100 scale (0 no effect, 100 complete control)
[25] = 31 g ai/ha, scale 0 to 100 (0 no effect, 100 complete control)

In the case of Cc1cc(C(=O)NCC(F)(F)F)nn1Cc1cccc(OC(F)(F)F)c1 [Compound 5], the “Barnyardgrass plant response rating” value (barnyardgrass [1]; [18]) is reported as 60, the “Barnyardgrass plant response rating” value (barnyardgrass [1]; [19]) is reported as 0 and the “Crabgrass, Large plant response rating” value (crabgrass, large [2]; [18]) is reported as 100. For the same compound, the “Crabgrass, Large plant response rating” value (crabgrass, large [2]; [19]) was 20, the “Foxtail, Giant plant response rating” value (foxtail, giant [3]; [18]) was 70 and the “Foxtail, Giant plant response rating” value (foxtail, giant [3]; [19]) was 10. The “Morningglory plant response rating” value (morningglory [4]; [18]) was 40, the “Morningglory plant response rating” value (morningglory [4]; [19]) was 0 and the “Pigweed plant response rating” value (pigweed [5]; [18]) was 100. The “Pigweed plant response rating” value (pigweed [5]; [19]) was 10, the “Velvetleaf plant response rating” value (velvetleaf [6]; [18]) was 20 and the “Velvetleaf plant response rating” value (velvetleaf [6]; [19]) was 0. For the same compound, the “Wheat plant response rating” value (wheat [7]; [19]) was 0, the “Corn plant response rating” value (corn [8]; [18]) was 0 and the “Corn plant response rating” value (corn [8]; [19]) was 0. For the same compound, the “Barnyardgrass plant response rating” value (barnyardgrass [9]; 125 g ai/ha, 0 to 100 scale, 0 no effect, 100 complete control) was 10, the “Barnyardgrass plant response rating” value (barnyardgrass [9]; 500 g ai/ha, visual rating after approx. 10 days, 0 to 100 scale (0 no effect, 100 complete control)) was 40 and the “Crabgrass, Large plant response rating” value (crabgrass, large [10]; [20]) was 70. The “Crabgrass, Large plant response rating” value (crabgrass, large [10]; [21]) was 10, the “Foxtail, Giant plant response rating” value (foxtail, giant [11]; [20]) was 60 and the “Foxtail, Giant plant response rating” value (foxtail, giant [11]; [21]) was 10. For the same compound, the “Morningglory plant response rating” value (morningglory [12]; [20]) was 100, the “Morningglory plant response rating” value (morningglory [12]; [21]) was 40 and the “Pigweed plant response rating” value (pigweed [13]; [20]) was 90. The “Pigweed plant response rating” value (pigweed [13]; [21]) was 50, the “Velvetleaf plant response rating” value (velvetleaf [14]; [20]) was 60 and the “Velvetleaf plant response rating” value (velvetleaf [14]; [21]) was 20. The “Wheat plant response rating” value (wheat [15]; [20]) was 10, the “Wheat plant response rating” value (wheat [15]; [21]) was 0 and the “Corn plant response rating” value (corn [16]; [20]) was 40. The “Corn plant response rating” value (corn [16]; [21]) was 10, the “Plant response rating, Rice” value (rice; [22]) was 0 and the “Plant response rating, Rice” value (rice; 250 g ai/ha, scale 0 to 100) was 0. For the same compound, the “Plant response rating, Sedge, Umbrella” value (sedge, umbrella; [22]) was 50, the “Plant response rating, Sedge, Umbrella” value (sedge, umbrella; 250 g ai/ha, scale 0 to 100) was 75 and the “Plant response rating, Ducksalad” value (ducksalad; [22]) was 0. For the same compound, the “Plant response rating, Ducksalad” value (ducksalad; 250 g ai/ha, scale 0 to 100) was 60, the “Plant response rating, Barnyardgrass” value (barnyardgrass [17]; [22]) was 0 and the “Plant response rating, Barnyardgrass” value (barnyardgrass [17]; 250 g ai/ha, scale 0 to 100) was 0.

CCCNC(=O)c1cc(CC)n(Cc2cccc(C(F)(F)F)c2)n1 [Compound 16] was tested, and the “Barnyardgrass plant response rating” value (barnyardgrass [1]; [23]) was 90, the “Crabgrass, Large plant response rating” value (crabgrass, large [2]; [23]) was 100 and the “Foxtail, Giant plant response rating” value (foxtail, giant [3]; [23]) was 100. The “Morningglory plant response rating” value (morningglory [4]; [23]) was 100, the “Pigweed plant response rating” value (pigweed [5]; [23]) was 100 and the “Velvetleaf plant response rating” value (velvetleaf [6]; [23]) was 30. For the same compound, the “Wheat plant response rating” value (wheat [7]; [23]) was 50, the “Corn plant response rating” value (corn [8]; [23]) was 50 and the “Barnyardgrass plant response rating” value (barnyardgrass [9]; 1000 g ai/ha, visual rating after approx. 10 days, 0 to 100 scale (0 no effect, 100 complete control)) was 60. For the same compound, the “Crabgrass, Large plant response rating” value (crabgrass, large [10]; [24]) was 80, the “Foxtail, Giant plant response rating” value (foxtail, giant [11]; [24]) was 80 and the “Morningglory plant response rating” value (morningglory [12]; [24]) was 100. For the same compound, the “Pigweed plant response rating” value (pigweed [13]; [24]) was 90, the “Velvetleaf plant response rating” value (velvetleaf [14]; [24]) was 100 and the “Wheat plant response rating” value (wheat [15]; [24]) was 50. The “Corn plant response rating” value (corn [16]; [24]) was 50, the “Plant response rating, Rice” value (rice; [25]) was 0 and the “Plant response rating, Rice” value (rice; [22]) was 0. For the same compound, the “Plant response rating, Rice” value (rice; 125 g ai/ha, scale 0 to 100) was 25, the “Plant response rating, Rice” value (rice; 250 g ai/ha, scale 0 to 100) was 25 and the “Plant response rating, Sedge, Umbrella” value (sedge, umbrella; [25]) was 70. The “Plant response rating, Sedge, Umbrella” value (sedge, umbrella; [22]) was 85, the “Plant response rating, Sedge, Umbrella” value (sedge, umbrella; 125 g ai/ha, scale 0 to 100) was 100 and the “Plant response rating, Sedge, Umbrella” value (sedge, umbrella; 250 g ai/ha, scale 0 to 100) was 100. The “Plant response rating, Ducksalad” value (ducksalad; [25]) was 50, the “Plant response rating, Ducksalad” value (ducksalad; [22]) was 85 and the “Plant response rating, Ducksalad” value (ducksalad; 125 g ai/ha, scale 0 to 100) was 95. For the same compound, the “Plant response rating, Ducksalad” value (ducksalad; 250 g ai/ha, scale 0 to 100) was 100, the “Plant response rating, Barnyardgrass” value (barnyardgrass [17]; [25]) was 0 and the “Plant response rating, Barnyardgrass” value (barnyardgrass [17]; [22]) was 0. For the same compound, the “Plant response rating, Barnyardgrass” value (barnyardgrass [17]; 125 g ai/ha, scale 0 to 100) was 0 and the “Plant response rating, Barnyardgrass” value (barnyardgrass [17]; 250 g ai/ha, scale 0 to 100) was 20.
